Laboratory results published in PMC10673563, “In Vitro and In Vivo Biological Evaluation of Indole-thiazolidine-2,4-dione Derivatives as Tyrosinase Inhibitors” (Molecules, 2023).
pIC50, pKi: −log10 of the molar value.

How the values were obtained:
Mushroom tyrosinase = molecular target: T1, Mushroom tyrosinase (Agaricus bisporus, UniProt C7FF04); test: Tyrosinase inhibitory activity assay (L-DOPA, absorbance 475 nm); type: biochemical; settings: for inhibition at 32 µM: initial concentration of 32 μM
T1 construct: purchased Sigma-Aldrich (Shanghai, China)
T1 sequence (C7FF04 1-392): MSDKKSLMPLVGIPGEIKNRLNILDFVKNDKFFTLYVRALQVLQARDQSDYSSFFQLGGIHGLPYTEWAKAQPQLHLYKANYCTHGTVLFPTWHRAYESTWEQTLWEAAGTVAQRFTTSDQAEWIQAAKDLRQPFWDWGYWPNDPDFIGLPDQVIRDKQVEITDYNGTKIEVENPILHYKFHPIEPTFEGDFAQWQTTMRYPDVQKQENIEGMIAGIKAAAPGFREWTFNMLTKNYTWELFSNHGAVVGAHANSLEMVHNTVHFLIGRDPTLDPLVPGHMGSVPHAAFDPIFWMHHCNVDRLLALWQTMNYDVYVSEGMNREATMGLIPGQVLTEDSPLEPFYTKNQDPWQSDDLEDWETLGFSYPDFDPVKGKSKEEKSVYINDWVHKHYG
Procedure: The tyrosinase inhibitory activities of compounds 5a~5z were determined according to previous reports. In brief, 10 μL of compound was added into 140 μL of tyrosinase, incubated for 5 min at room temperature. Then, 50 μL of L-DOPA was added, followed by the measurement of absorbance change at 475 nm. The inhibition rate at different concentrations was calculated and compared to the blank control.

[1] = system: tyrosinase activity in B16F10 cells; test: Tyrosinase activity in B16F10 cells; type: cell-based; settings: 16 and 32 μM; for cellular tyrosinase activity: 48 h
Procedure: The tyrosinase inhibitory activity of 5w in B16F10 cells was determined. B16F10 cells (1 × 10^5 cells/well) were seeded into the 6-well plate for 24 h and subsequently treated with compound 5w or kojic acid for another 48 h. Then, the harvested cells were suspended into the appropriate amount of Triton X-100 (1%) and frozen for 1 h at −80 °C. After it had thawed, the mixture was centrifuged to collect the supernatant. Then, its protein concentration was determined using a BCA Kit. After 20 μL of L-DOPA (10 mM) was added into 80 μL of protein solution, the absorbance change at 475 nm was measured.

tyrosinase [2] = molecular target: T2, tyrosinase (Agaricus bisporus, UniProt C7FF04); test: Three-dimensional fluorescence spectra; set-up: species or system mushroom; settings: 5w 8.5 μM
T2 construct: purchased Sigma-Aldrich (Shanghai, China)
Procedure: Three-dimensional fluorescence spectra were employed to monitor the effects of compound 5w on the conformation and microenvironment changes in tyrosinase. In the 3D fluorescence spectra of tyrosinase (Figure 5A), two characteristic peaks 1 and 2 appeared, which corresponded to Tyr and Trp residues and polypeptide strand transition, respectively.
Based on a previous report, the 3D fluorescence spectra of tyrosinase (0.17 mg/mL) and tyrosinase–compound 5w mixture were measured, respectively, at room temperature. The test wavelengths were 200–400 nm.
Target sequence in this assay (C7FF04 1-392 limits assumed): as the sequence (C7FF04 1-392) above

tyrosinase [3] = molecular target: T2, tyrosinase; test: Fluorescence quenching titration (Stern–Volmer); type: binding, mushroom
Procedure: Fluorescence quenching, an effective method for monitoring the binding of a compound to its target protein, was operated to examine the binding of compound 5w with tyrosinase.
For a further understanding of the binding process of compound 5w with tyrosinase, the fluorescence quenching manner was assayed using the Stern–Volmer equation. In the Stern–Volmer plots of compound 5w (Figure 3D), the lines at different temperatures presented a good linear, which illustrated only one quenching manner in their binding process. Although the quenching constant (Ksv) values were slightly proportional to temperature, the quench rate constant (Kq) values at different temperatures were all higher than 2 × 10^10 L mol^−1 S^−1, which is the maximum scattering collision quenching constant (Table 2). […] In addition, the number of binding sites (n) was obtained to be about one, meaning there was only one binding site between compound 5w and tyrosinase (Table 2).
According to a previous report, the fluorescence quenching titration was run. In total, 1 μL of 5w solution was progressively titrated into 2 mL of tyrosinase (0.17 mg/mL), followed by fluorescence spectra determination (λex = 280 nm) at temperatures of 298, 303, and 308 K, respectively. The quenching parameters were obtained using the Stern–Volmer equation.
Target sequence in this assay (C7FF04 1-392 limits assumed): as the sequence (C7FF04 1-392) above

[4] = system: tyrosinase activity in zebrafish; test: Tyrosinase activity in zebrafish; type: in vivo; settings: for tyrosinase activity in zebrafish: zebrafish embryos
Procedure: The embryos treated with compound 5w or kojic acid were lysed in PBS, followed by centrifugation to obtain the supernatant. The appropriate amount of supernatant, equal L-DOPA (5 mg/mL), was added and the absorbance at 475 nm was determined.

B16F10 cells = test: Cell cytotoxicity (MTT); type: cell-based; settings: 4~32 μM, 48 h
Procedure: The effects of compound 5w and kojic acid on the cells’ viability were determined using the MTT method. B16F10 cells (5000 cells/well) were seeded into the 96-well plate for 24 h, followed by the treatment of compound 5w or kojic acid (4~32 μM) for another 48 h. Then, MTT solution (0.5 mg/mL) was added and incubated for 4 h. DMSO (100 μL) was used to dissolve the violet precipitates, and then the mixture was measured for its absorbance at 570 nm.

[5] = system: melanogenesis in B16F10 cells; test: Melanin content in B16F10 cells; type: cell-based; settings: 16 and 32 μM; for melanogenesis in B16F10 cells: 48 h
Procedure: B16F10 cell treatment was consistent with the above method. The harvested cells were suspended into NaOH (1 M, 200 μL). After boiling for 1 h, the mixture was measured to determine the absorbance change at wavelength of 405 nm.

tyrosinase [6] = molecular target: T2, tyrosinase; test: CD spectra, secondary structure content of tyrosinase; set-up: species or system mushroom
Procedure: CD spectra, one widely used method for determining the secondary structure of protein, were applied to assay the effects of 5w on the conformation change of tyrosinase. The CD spectra of the tyrosinase–compound 5w mixture were monitored and two negative characteristic bands around 210 and 222 nm appeared (Figure 4), which represented typical features of α-helixes.
The CD spectra of tyrosinase (33 μM) and tyrosinase–compound 5w mixture were measured at room temperature, respectively, based on previous reports. The test wavelengths were 195~250 nm.
Target sequence in this assay (C7FF04 1-392): as above

[7] = system: melanogenesis in zebrafish; test: Melanin content in zebrafish (microscope, Image J); type: in vivo; settings: for grayscale values of whole embryos / pigmentation of embryo (eyes, yolk sac, notum): compared to control embryo; for pigmentation of embryo (eyes, yolk sac, notum): embryo photos
Procedure: The embryos treated with compound 5w or kojic acid were observed under a microscope and the melanin content was assayed using Image J software.

tyrosinase [8] = molecular target: T2, tyrosinase; test: Inhibition kinetics (Lineweaver–Burk plots); type: biochemical, mushroom
Procedure: To understand the inhibition mechanism of this kind of compound on tyrosinase, the inhibition kinetics of the preferable compound 5w were investigated. […] With the increasing concentrations of 5w, the Y-intercept of corresponding lines increased and the X-intercept decreased, meaning the decrease of Vmax and Km.
The kinetics studies of 5w were conducted using the above experimental procedure. The absorbance changes in the mixture containing 5w (0, 4, 8, and 16 μM), tyrosinase (66.7 U/mL), and L-DOPA (2, 4, 6, and 8 mM) were recorded, respectively. The data were analyzed using Lineweaver–Burk plots.
Target sequence in this assay (C7FF04 1-392 limits assumed): as the sequence (C7FF04 1-392) above

O=C(CN1C(=O)S/C(=C\c2ccccc2)C1=O)NCCc1c[nH]c2ccccc12 [5a]
inhibition at 32 µM (Mushroom tyrosinase): 14.2%

Cc1ccccc1/C=C1\SC(=O)N(CC(=O)NCCc2c[nH]c3ccccc23)C1=O [5b]
inhibition at 32 µM (Mushroom tyrosinase): 19.3%

Cc1cccc(/C=C2\SC(=O)N(CC(=O)NCCc3c[nH]c4ccccc34)C2=O)c1 [5c]
inhibition at 32 µM (Mushroom tyrosinase): 33.2%

Cc1ccc(/C=C2\SC(=O)N(CC(=O)NCCc3c[nH]c4ccccc34)C2=O)cc1 [5d]
inhibition at 32 µM (Mushroom tyrosinase): 15.1%

O=C(CN1C(=O)S/C(=C\c2ccccc2F)C1=O)NCCc1c[nH]c2ccccc12 [5e]
inhibition at 32 µM (Mushroom tyrosinase): 16.5%

O=C(CN1C(=O)S/C(=C\c2cccc(F)c2)C1=O)NCCc1c[nH]c2ccccc12 [5f]
inhibition at 32 µM (Mushroom tyrosinase): 32.6%

O=C(CN1C(=O)S/C(=C\c2ccc(F)cc2)C1=O)NCCc1c[nH]c2ccccc12 [5g]
inhibition at 32 µM (Mushroom tyrosinase): 27.4%

O=C(CN1C(=O)S/C(=C\c2ccccc2Cl)C1=O)NCCc1c[nH]c2ccccc12 [5h]
inhibition at 32 µM (Mushroom tyrosinase): 16.8%

O=C(CN1C(=O)S/C(=C\c2cccc(Cl)c2)C1=O)NCCc1c[nH]c2ccccc12 [5i]
inhibition at 32 µM (Mushroom tyrosinase): 37.6%

O=C(CN1C(=O)S/C(=C\c2ccc(Cl)cc2)C1=O)NCCc1c[nH]c2ccccc12 [5j]
inhibition at 32 µM (Mushroom tyrosinase): 36.6%

O=C(CN1C(=O)S/C(=C\c2ccccc2Br)C1=O)NCCc1c[nH]c2ccccc12 [5k]
inhibition at 32 µM (Mushroom tyrosinase): 31.7%

O=C(CN1C(=O)S/C(=C\c2cccc(Br)c2)C1=O)NCCc1c[nH]c2ccccc12 [5l]
pIC50 (Mushroom tyrosinase): 4.88
inhibition at 32 µM (Mushroom tyrosinase): > 70%

O=C(CN1C(=O)S/C(=C\c2ccc(Br)cc2)C1=O)NCCc1c[nH]c2ccccc12 [5m]
inhibition at 32 µM (Mushroom tyrosinase): 19.5%

O=C(CN1C(=O)S/C(=C\c2ccccc2C(F)(F)F)C1=O)NCCc1c[nH]c2ccccc12 [5n]
inhibition at 32 µM (Mushroom tyrosinase): 3.8%

O=C(CN1C(=O)S/C(=C\c2cccc(C(F)(F)F)c2)C1=O)NCCc1c[nH]c2ccccc12 [5o]
inhibition at 32 µM (Mushroom tyrosinase): 4.5%

O=C(CN1C(=O)S/C(=C\c2ccc(C(F)(F)F)cc2)C1=O)NCCc1c[nH]c2ccccc12 [5p]
inhibition at 32 µM (Mushroom tyrosinase): 3%

COc1ccccc1/C=C1\SC(=O)N(CC(=O)NCCc2c[nH]c3ccccc23)C1=O [5q]
inhibition at 32 µM (Mushroom tyrosinase): 1%

COc1cccc(/C=C2\SC(=O)N(CC(=O)NCCc3c[nH]c4ccccc34)C2=O)c1 [5r]
inhibition at 32 µM (Mushroom tyrosinase): 2%

COc1ccc(/C=C2\SC(=O)N(CC(=O)NCCc3c[nH]c4ccccc34)C2=O)cc1 [5s]
inhibition at 32 µM (Mushroom tyrosinase): 1%

O=C(CN1C(=O)S/C(=C\c2ccccc2O)C1=O)NCCc1c[nH]c2ccccc12 [5t]
inhibition at 32 µM (Mushroom tyrosinase): 26.9%

O=C(CN1C(=O)S/C(=C\c2cccc(O)c2)C1=O)NCCc1c[nH]c2ccccc12 [5u]
inhibition at 32 µM (Mushroom tyrosinase): 36.2%

O=C(CN1C(=O)S/C(=C\c2ccc(O)cc2)C1=O)NCCc1c[nH]c2ccccc12 [5v]
inhibition at 32 µM (Mushroom tyrosinase): 24.6%

N#Cc1cccc(/C=C2\SC(=O)N(CC(=O)NCCc3c[nH]c4ccccc34)C2=O)c1 [5w]
cellular anti-tyrosinase activity compared with kojic acid [1]: obvious higher
cellular tyrosinase activity [1]: could inhibit
3D fluorescence characteristic peaks 1 and 2 of tyrosinase (tyrosinase [2]): reduced significantly accompanied by a slight shift
fluorescence quenching process (tyrosinase [3]): static quenching process
KSV (tyrosinase [3]; T 298 K): 3.77 ×10^4 Lmol^−1
Kq (tyrosinase [3]; T 298 K): 3.77 ×10^12 Lmol^−1
n (number of binding sites) (tyrosinase [3]; T 298 K): 0.72
KSV (tyrosinase [3]; T 303 K): 3.84 ×10^4 Lmol^−1
Kq (tyrosinase [3]; T 303 K): 3.84 ×10^12 Lmol^−1
n (number of binding sites) (tyrosinase [3]; T 303 K): 0.74
KSV (tyrosinase [3]; T 308 K): 4.47 ×10^4 Lmol^−1
Kq (tyrosinase [3]; T 308 K): 4.47 ×10^12 Lmol^−1
n (number of binding sites) (tyrosinase [3]; T 308 K): 0.82
quench rate constant (Kq) (tyrosinase [3]; at different temperatures (298, 303, 308 K)): higher than 2 × 10^10 L mol^−1 S^−1
anti-tyrosinase activity in zebrafish compared with kojic acid ([4]; concentration of 10 μM): higher anti-tyrosinase activity than kojic acid
tyrosinase activity in zebrafish [4]: could reduce the tyrosinase activity in zebrafish
effect on cells' viability (B16F10 cells): obvious effects
anti-melanogenesis activity compared with kojic acid [5]: obvious higher
melanogenesis in B16F10 cells [5]: could inhibit
pIC50 (Mushroom tyrosinase): 4.95
inhibition at 32 µM (Mushroom tyrosinase): > 70%
Random Coil (%) (tyrosinase [6]; [Enzyme]: [5w] 1: 1): 32.5%
α-Helix (%) (tyrosinase [6]; [Enzyme]: [5w] 1: 1): 8.8%
β-Sheet (%) (tyrosinase [6]; [Enzyme]: [5w] 1: 1): 33.6%
β-Turn (%) (tyrosinase [6]; [Enzyme]: [5w] 1: 1): 19.9%
Random Coil (%) (tyrosinase [6]; [Enzyme]: [5w] 1: 2): 34.5%
α-Helix (%) (tyrosinase [6]; [Enzyme]: [5w] 1: 2): 8.9%
β-Sheet (%) (tyrosinase [6]; [Enzyme]: [5w] 1: 2): 33.1%
β-Turn (%) (tyrosinase [6]; [Enzyme]: [5w] 1: 2): 20.0%
Random Coil (%) (tyrosinase [6]; [Enzyme]: [5w] 1: 3): 35.5%
α-Helix (%) (tyrosinase [6]; [Enzyme]: [5w] 1: 3): 9.0%
β-Sheet (%) (tyrosinase [6]; [Enzyme]: [5w] 1: 3): 32.7%
β-Turn (%) (tyrosinase [6]; [Enzyme]: [5w] 1: 3): 20.1%
decrease in grayscale values compared with kojic acid ([7]; Image J): displayed a higher decrease
grayscale values of whole embryos ([7]; Image J): decrease in grayscale values
pigmentation of embryo (eyes, yolk sac, notum) [7]: pigmentation decrease
inhibition type (tyrosinase [8]; Lineweaver–Burk plots): mixed-type tyrosinase inhibitor
pKi (tyrosinase [8]; from plots of slope vs. inhibitor concentration, read-out: inhibition constant (Ki)): 4.93

N#Cc1ccc(/C=C2\SC(=O)N(CC(=O)NCCc3c[nH]c4ccccc34)C2=O)cc1 [5x]
inhibition at 32 µM (Mushroom tyrosinase): 24.6%

O=C(CN1C(=O)S/C(=C\c2cccc([N+](=O)[O-])c2)C1=O)NCCc1c[nH]c2ccccc12 [5y]
inhibition at 32 µM (Mushroom tyrosinase): 19.8%

O=C(CN1C(=O)S/C(=C\c2ccc([N+](=O)[O-])cc2)C1=O)NCCc1c[nH]c2ccccc12 [5z]
inhibition at 32 µM (Mushroom tyrosinase): 19.1%

O=c1cc(CO)occ1O [Kojic acid, reference compound]
cellular tyrosinase activity [1]: could inhibit
tyrosinase activity in zebrafish [4]: could reduce the tyrosinase activity in zebrafish
effect on cells' viability (B16F10 cells): obvious effects
melanogenesis in B16F10 cells [5]: could inhibit
grayscale values of whole embryos ([7]; Image J): decrease in grayscale values
pigmentation of embryo (eyes, yolk sac, notum) [7]: pigmentation decrease
